In one assay the target is T1, human GPR40 (Homo sapiens, UniProt O14842).
T1 construct: expressed in transfected cells; host or cells: HEK293
Kind of assay: Calcium Flux Primary Assay. The class given is cell-based. Here is the method:
HEK293 cells over expressing the human GPR40 cDNA maintained in Dulbecco's modified Eagle's medium with F12 medium in 3:1 ratio supplemented with 10% FBS and 800 μg/ml geneticin at 37° C. and 5% CO2 are employed for the study. Agonist assays are performed using a Calcium 4 Dye assay kit (Molecular Devices) in the presence (0.1%) or absence of fatty acid free BSA in the assay buffer (1×HBSS (Hank's Balanced Salt Solution) & 20 mM HEPES (4-(2-hydroxyethyl)-1-piperazineethanesulfonic acid). Receptor activation is measured as an increase in intracellular calcium using the Fluorometric Imaging Plate Reader (FLIPR). Maximum change in fluorescence over the base line is used to determine agonist response. EC50 (effective concentration at half the maximal response) value of the compound is calculated using Excel Fit software (version 4; IDBS) by plotting concentration vs relative fluorescence units (RFUs).
Background: Calcium flux is commonly read through the fluorescence of an indicator in the cells.

The target in another assay is T2, PPARγ (Homo sapiens, UniProt P37231).
T2 sequence (P37231 1-505): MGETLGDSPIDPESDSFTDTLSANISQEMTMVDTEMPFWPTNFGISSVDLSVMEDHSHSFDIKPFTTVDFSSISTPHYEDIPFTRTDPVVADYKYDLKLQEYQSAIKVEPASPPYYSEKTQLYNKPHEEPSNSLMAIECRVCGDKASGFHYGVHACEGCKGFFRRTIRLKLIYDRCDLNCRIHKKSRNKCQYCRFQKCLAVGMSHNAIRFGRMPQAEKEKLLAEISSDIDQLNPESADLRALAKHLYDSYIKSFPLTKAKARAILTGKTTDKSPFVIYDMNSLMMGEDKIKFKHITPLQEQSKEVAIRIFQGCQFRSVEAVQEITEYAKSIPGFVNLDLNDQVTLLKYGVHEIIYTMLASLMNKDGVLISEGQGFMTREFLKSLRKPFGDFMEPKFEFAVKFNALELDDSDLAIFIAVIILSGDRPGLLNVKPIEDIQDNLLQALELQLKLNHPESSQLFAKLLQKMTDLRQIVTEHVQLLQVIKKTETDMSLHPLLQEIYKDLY
T2 sequence (P19793 1-462 partner): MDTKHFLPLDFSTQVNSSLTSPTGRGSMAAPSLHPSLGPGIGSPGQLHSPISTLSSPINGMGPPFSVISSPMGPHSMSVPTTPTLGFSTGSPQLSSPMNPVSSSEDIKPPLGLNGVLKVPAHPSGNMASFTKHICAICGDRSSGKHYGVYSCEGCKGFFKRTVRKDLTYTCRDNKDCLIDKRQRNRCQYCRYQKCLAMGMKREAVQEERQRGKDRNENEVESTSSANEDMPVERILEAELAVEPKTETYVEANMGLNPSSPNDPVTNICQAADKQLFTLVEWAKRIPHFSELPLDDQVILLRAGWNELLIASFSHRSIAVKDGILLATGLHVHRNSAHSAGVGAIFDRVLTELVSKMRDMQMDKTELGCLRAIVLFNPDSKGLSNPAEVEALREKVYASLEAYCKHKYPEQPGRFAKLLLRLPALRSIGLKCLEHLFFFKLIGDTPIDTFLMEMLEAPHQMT
Kind of assay: PPARγ binding assay (SPA). More on the design: made in house; host or cells: HEK293 (cell lysates). The settings on record: concentrations up to 10 μM. How it is done: Because GPR40 is known to be activated by ligands to PPARγ exemplified compounds are examined in PPARα, PPARδ, and PPARγ binding and functional assays to determine the selectivity of exemplified compounds for GPR40. Compounds exemplified herein are tested essentially as described below for PPAR binding and generally have binding values greater than 1000 nM with 10 μM concentrations of test compound and are thus considered negative for PPAR activity.
Binding affinities of compounds for the PPAR α, δ, and γ receptors are assessed using Scintillation Proximity Assay (SPA) technology. Biotinylated oligonucleotide Direct Repeat 2 (DR2) is used for binding the receptors to Yttrium silicate streptavidin-coated SPA beads. […] Non-specific binding is determined in the presence of 10,000 nM of the unlabeled PPAR α/δ dual agonist reference compound for the alpha and delta receptor assays and the PPARγ agonist reference compound for the gamma receptor assay. The binding reaction (100 μl per well in a 96 well [Costar 3632] plate) is incubated for 10 h and counted disintegration per minutes (dpm) on a Wallac Microbeta. Receptor binding affinity (IC50) for the compounds is determined by fitting an 11 point concentration-response curve with a 4-parameter logistic equation. Ki, is determined from the IC50 using the Cheng-Prussoff equation and Kd determined by saturation binding. […]

T1 sequence (O14842 whole entry): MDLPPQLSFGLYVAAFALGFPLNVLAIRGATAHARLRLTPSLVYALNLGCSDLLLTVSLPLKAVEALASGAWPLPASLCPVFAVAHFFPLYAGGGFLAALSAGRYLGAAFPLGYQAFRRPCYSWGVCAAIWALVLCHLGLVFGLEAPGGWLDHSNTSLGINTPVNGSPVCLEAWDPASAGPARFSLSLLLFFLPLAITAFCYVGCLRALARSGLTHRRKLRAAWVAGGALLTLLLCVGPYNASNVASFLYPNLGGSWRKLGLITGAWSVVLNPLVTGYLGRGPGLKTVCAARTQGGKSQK

Regarding `CC#C[C@@H](CC(=O)O)c1ccc(OCc2ccc(CN3CCC4(C=Cc5ccccc54)CC3)cc2)cc1` [Example 1, (3S)-3-(4-{[4-(1′H-Spiro[indene-1,4′-piperidin]-1′-ylmethyl)benzyl]oxy}phenyl)hex-4-ynoic acid], the EC50 at human GPR40 (HEK293 cells over expressing human GPR40, FLIPR calcium) was determined as 186 nM. For the same compound, at human GPR40 (maximal response compared to the natural ligand, linoleic acid), the efficacy was 91+/−10%. In addition, on PPARγ, the binding detected entry is “no binding is detected”.

Broadly, the EC50 is the concentration that produces a half-maximal response.

The values above are taken from US8383642B2, “Spiropiperidine compounds” (Eli Lilly and Company, priority 2009, dated 2013).
